From ChEMBL document CHEMBL1201862, “PubChem BioAssay data set” (2004)
The source made the active and inactive calls.

Experiments:
[1] = target: T1, Sentrin-specific protease 1 (Homo sapiens, UniProt Q9P0U3); assay: SENP1 catalytic domain blockers, concentration series – biochemical, kinetic FRET, dose response (AID 651697); format: functional; details: read-out: IC50_Mean
[2] = target: T1, Sentrin-specific protease 1; assay: Dose response confirmation of small molecule inhibitors of the catalytic domain of the SUMO protease, SENP1 in a FRET assay.; format: functional; details: read-out: IC50_Mean
[3] = target: Melanin-concentrating hormone receptor 1 (Homo sapiens, UniProt Q99705); assay: Late-stage fluorescence-based counterscreen for antagonists of the G-protein coupled receptor 7 (GPR7): cell-based dose response assay to identify antagonists of the melanin-concentrating hormone receptor 1 (MCHR1) Set 5.; format: functional
Sequence of Melanin-concentrating hormone receptor 1 (Q99705 whole entry): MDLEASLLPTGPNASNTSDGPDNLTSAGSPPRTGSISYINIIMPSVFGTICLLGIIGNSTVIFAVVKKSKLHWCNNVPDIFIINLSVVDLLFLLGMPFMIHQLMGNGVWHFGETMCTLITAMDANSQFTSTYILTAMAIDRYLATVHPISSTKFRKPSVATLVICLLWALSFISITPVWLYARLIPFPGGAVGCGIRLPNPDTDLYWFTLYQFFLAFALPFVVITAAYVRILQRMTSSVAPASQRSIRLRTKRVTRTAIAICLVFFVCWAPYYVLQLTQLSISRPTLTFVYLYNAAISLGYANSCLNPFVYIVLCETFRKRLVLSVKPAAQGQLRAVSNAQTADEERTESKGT

[4] = target: T2, Neuropeptides B/W receptor type 1 (Homo sapiens, UniProt P48145); assay: human NPBW1 receptor blockade, IC50 – cell-based, fluorescence, dose response, set 5, late-stage follow-up (AID 588566); format: functional
T2 sequence (P48145 whole entry): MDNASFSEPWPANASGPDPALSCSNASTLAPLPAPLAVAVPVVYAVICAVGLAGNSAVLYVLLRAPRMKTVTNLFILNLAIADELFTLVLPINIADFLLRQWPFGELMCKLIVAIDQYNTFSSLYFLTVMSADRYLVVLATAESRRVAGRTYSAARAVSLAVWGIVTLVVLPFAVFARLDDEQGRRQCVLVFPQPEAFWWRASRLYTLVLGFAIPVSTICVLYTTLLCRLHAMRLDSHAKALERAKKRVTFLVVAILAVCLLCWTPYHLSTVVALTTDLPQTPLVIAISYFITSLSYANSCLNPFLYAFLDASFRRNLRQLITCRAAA

[5] = target: Protein disulfide-isomerase (Homo sapiens, UniProt P07237); assay: inhibition of PDI-driven insulin aggregation – biochemical, turbidity, absorbance, cherry-picked samples, dose response (AID 602350); format: functional
Sequence of Protein disulfide-isomerase (P07237 whole entry): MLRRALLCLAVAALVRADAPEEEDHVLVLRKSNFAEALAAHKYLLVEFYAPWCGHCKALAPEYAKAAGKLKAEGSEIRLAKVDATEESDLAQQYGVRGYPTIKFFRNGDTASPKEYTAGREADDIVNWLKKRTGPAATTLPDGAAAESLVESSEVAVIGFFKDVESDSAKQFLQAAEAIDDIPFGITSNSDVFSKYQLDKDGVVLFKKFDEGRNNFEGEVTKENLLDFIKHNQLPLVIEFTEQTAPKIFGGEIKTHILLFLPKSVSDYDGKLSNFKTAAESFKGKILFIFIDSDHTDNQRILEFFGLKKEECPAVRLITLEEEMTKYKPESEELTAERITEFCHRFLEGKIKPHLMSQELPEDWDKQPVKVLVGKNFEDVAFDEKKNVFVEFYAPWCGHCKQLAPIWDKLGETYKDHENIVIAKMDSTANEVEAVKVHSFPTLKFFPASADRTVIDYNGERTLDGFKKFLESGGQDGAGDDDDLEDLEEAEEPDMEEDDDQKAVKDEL

Estrogen receptor beta [6] = target: T3, Estrogen receptor beta (Homo sapiens, UniProt Q92731); assay: blockers of SRC-3 recruitment to ERβ – biochemical, ELISA, streptavidin-HRP readout, orthogonal assay, confirmation (AID 1060)
T3 sequence (Q92731 whole entry): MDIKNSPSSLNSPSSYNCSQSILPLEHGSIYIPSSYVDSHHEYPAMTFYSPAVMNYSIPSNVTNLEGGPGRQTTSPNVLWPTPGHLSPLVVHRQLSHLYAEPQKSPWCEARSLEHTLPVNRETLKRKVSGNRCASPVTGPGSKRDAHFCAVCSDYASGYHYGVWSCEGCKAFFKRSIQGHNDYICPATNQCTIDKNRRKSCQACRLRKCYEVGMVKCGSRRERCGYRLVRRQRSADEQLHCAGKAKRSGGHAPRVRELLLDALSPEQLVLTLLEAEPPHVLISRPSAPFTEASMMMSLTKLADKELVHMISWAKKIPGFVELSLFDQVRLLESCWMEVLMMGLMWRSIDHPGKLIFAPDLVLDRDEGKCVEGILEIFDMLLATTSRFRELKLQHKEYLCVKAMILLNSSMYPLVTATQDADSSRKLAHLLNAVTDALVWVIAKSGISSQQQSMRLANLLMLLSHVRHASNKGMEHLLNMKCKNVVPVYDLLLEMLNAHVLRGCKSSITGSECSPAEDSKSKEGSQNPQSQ

Estrogen receptor = target: T4, Estrogen receptor (Homo sapiens, UniProt P03372);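 further: potency for inhibiting coactivator peptide recruitment to the receptor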
T4 sequence (P03372 whole entry): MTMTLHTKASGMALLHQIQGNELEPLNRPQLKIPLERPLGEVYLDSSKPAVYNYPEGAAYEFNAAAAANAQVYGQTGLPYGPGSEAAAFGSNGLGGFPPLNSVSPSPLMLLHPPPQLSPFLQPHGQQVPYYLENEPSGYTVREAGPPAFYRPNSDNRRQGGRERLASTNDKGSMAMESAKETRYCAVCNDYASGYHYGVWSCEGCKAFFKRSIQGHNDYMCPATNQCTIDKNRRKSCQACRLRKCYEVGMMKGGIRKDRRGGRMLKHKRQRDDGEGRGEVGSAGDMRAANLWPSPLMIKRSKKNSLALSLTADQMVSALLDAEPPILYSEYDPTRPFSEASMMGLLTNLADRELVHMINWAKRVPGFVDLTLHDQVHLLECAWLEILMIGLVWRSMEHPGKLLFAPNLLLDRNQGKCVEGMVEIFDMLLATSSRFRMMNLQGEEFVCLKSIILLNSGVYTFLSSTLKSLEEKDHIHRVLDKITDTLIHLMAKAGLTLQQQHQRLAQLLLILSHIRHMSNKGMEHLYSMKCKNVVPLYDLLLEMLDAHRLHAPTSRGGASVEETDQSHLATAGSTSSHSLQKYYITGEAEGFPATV

[7] = target: DNA (cytosine-5)-methyltransferase 1 (Homo sapiens, UniProt P26358); assay: inhibition of DNA methylation by DNMT1 – biochemical, fluorescent molecular beacon, confirmation (AID 602386); format: functional
Sequence of DNA (cytosine-5)-methyltransferase 1 (P26358 whole entry): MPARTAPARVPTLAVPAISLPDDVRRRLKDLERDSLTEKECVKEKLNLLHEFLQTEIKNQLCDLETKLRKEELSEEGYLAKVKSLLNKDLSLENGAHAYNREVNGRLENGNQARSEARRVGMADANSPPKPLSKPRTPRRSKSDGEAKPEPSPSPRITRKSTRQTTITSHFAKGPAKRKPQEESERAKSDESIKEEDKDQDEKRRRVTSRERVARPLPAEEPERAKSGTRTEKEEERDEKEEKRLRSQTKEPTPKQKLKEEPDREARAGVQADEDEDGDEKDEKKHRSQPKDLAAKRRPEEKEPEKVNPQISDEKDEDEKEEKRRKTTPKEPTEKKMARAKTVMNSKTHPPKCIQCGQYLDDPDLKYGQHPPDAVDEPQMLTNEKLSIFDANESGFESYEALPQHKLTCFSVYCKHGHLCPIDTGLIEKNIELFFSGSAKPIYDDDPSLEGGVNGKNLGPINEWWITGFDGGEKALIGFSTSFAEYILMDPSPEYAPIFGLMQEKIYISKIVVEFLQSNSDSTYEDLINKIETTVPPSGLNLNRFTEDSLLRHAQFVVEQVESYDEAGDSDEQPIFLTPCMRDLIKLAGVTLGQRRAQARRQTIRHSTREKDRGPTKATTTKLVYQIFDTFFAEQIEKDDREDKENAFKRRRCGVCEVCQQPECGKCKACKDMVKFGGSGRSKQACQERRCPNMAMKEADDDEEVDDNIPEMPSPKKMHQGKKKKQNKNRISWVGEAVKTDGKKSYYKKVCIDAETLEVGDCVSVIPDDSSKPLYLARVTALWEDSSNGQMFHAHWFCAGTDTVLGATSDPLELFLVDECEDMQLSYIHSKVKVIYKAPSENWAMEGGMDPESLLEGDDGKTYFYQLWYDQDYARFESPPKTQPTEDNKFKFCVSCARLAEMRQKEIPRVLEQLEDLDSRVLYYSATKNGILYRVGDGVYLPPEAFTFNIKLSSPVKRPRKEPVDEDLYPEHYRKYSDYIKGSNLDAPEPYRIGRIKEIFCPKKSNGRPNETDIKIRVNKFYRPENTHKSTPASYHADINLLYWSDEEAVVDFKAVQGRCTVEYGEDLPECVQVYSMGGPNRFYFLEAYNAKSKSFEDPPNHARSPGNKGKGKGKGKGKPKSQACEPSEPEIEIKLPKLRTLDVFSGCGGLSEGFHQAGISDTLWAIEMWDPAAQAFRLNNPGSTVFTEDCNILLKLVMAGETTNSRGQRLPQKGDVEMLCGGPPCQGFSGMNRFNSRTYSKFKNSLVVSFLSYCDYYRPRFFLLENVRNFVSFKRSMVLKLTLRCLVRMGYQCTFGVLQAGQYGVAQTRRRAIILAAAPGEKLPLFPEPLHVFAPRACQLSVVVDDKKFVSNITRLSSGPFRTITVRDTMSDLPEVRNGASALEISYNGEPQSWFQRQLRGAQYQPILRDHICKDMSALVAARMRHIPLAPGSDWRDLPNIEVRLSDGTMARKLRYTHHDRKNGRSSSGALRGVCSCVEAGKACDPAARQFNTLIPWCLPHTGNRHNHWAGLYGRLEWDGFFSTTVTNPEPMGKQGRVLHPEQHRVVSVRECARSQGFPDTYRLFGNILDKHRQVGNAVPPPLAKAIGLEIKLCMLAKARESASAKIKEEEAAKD

Estrogen receptor beta [8] = target: T3, Estrogen receptor beta
[9] = target: T5, Carboxy-terminal domain RNA polymerase II polypeptide A small phosphatase 1 (Homo sapiens, UniProt Q9GZU7); assay: CTDSP1 inhibitors, concentration-response, biochemical, absorbance readout, ultra-high-throughput screen actives (AID 540297); format: functional
T5 sequence (Q9GZU7 whole entry): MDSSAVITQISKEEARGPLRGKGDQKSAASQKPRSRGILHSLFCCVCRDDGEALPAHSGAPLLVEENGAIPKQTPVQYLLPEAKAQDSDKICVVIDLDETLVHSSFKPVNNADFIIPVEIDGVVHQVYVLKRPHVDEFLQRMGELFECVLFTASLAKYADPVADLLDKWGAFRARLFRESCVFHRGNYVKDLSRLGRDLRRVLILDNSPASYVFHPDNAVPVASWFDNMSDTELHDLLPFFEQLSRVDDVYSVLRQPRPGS

[10] = target: ADP-ribosylation factor GTPase-activating protein 1 (Rattus norvegicus, UniProt Q62848); assay: Fluorescence polarization-based biochemical high throughput dose response screening assay to identify inhibitors of ADP-ribosylation factor GTPase activating protein 1 (ARFGAP1).; format: functional
Sequence of ADP-ribosylation factor GTPase-activating protein 1 (Q62848 whole entry): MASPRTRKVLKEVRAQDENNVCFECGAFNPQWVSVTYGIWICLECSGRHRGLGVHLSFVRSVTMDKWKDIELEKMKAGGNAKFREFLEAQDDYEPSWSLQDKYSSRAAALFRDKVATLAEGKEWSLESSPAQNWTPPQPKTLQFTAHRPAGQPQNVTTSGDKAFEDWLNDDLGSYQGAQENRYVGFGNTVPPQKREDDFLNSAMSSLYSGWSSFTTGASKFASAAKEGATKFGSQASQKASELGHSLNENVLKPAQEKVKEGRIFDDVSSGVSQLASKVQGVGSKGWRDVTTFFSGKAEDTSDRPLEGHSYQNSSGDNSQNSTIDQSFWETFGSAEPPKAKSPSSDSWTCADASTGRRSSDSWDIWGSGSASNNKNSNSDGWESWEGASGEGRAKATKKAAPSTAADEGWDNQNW

[11] = viability loss in HEK293 cells – cell-based, plate reader, cherry-picked samples, cytotoxicity control, dose response (AID 743446); format: functional
[12] = blockers of bursicon-stimulated LGR2 cAMP reporter – cell-based, HEK293, CRE-luciferase reporter, cherry pick, set 2, dose response (AID 743343); format: functional;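 further: transfected cells were stimulated with diluted bursicon conditioned medium after compound addition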
Melanocortin receptor 4 = Melanocortin receptor 4 (Homo sapiens, UniProt P32245); assay: inhibitors of MC4R cAMP signaling – cell-based, TR-FRET, biased antagonists, dose response (AID 602298); format: functional;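 further: antagonist potency against agonist-stimulated cAMP production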
Sequence of Melanocortin receptor 4 (P32245 whole entry): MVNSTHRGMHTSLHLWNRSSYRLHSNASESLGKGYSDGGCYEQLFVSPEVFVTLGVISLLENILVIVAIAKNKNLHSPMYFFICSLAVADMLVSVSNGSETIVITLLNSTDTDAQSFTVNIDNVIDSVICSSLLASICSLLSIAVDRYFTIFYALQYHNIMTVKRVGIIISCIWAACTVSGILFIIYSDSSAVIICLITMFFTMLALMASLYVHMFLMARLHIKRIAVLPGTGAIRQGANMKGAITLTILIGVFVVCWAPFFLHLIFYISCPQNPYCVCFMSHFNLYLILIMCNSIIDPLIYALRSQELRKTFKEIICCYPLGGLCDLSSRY

[13] = cAMP pathway inhibition in counterscreen cell line – TR-FRET cAMP detection, counter-screen for MC4R biased antagonist project, dose response (AID 602305); format: functional, cell-based;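 further: U2OS cells stimulated with forskolin near its EC80 as the cAMP inducer; potency is for inhibition of forskolin-stimulated cAMP signaling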
[14] = blockade of melanocortin 4 receptor signaling – cell-based, plate reader, cherry pick, counter-screen for LGR2 antagonist project, dose response (AID 743444); format: functional;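 further: transfected HEK 293 cells stimulated with alpha-MSH peptide; potency of inhibitors of the alpha-MSH evoked signal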
[15] = microbe, parasite or virus in culture; format: functional; details: Mycobacterium tuberculosis
[16] = THP-1 cell cytotoxicity, dose response, cytotoxicity control for non-replicating M. tuberculosis project (AID 489025); format: functional
cells = format: functional
[17] = blockers of CAL PDZ–TMR peptide complex – biochemical, fluorescence polarization, untagged CAL PDZ, cherry-pick, set 2, dose response (AID 602254); format: functional
[18] = target: T6, Low molecular weight phosphotyrosine protein phosphatase (Homo sapiens, UniProt P24666); format: functional; details: read-out: IC50_Mean
T6 sequence (P24666 whole entry): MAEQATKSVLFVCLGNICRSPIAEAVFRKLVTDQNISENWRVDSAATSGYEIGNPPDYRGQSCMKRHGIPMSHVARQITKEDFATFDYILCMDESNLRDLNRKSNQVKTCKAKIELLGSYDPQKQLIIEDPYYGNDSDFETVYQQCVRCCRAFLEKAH

[19] = target: T6, Low molecular weight phosphotyrosine protein phosphatase; format: functional; details: read-out: IC50_Mean; remark: listed apart in the source
[20] = target: T7, Tyrosine-protein phosphatase non-receptor type 22 (Homo sapiens, UniProt Q9Y2R2); assay: PTPN22 enzyme inhibitors – biochemical, fluorescence, LYP catalytic domain, selectivity assay for LMPTP inhibitor project, dose response (AID 652006); format: functional; details: read-out: IC50_Mean
T7 sequence (Q9Y2R2 whole entry): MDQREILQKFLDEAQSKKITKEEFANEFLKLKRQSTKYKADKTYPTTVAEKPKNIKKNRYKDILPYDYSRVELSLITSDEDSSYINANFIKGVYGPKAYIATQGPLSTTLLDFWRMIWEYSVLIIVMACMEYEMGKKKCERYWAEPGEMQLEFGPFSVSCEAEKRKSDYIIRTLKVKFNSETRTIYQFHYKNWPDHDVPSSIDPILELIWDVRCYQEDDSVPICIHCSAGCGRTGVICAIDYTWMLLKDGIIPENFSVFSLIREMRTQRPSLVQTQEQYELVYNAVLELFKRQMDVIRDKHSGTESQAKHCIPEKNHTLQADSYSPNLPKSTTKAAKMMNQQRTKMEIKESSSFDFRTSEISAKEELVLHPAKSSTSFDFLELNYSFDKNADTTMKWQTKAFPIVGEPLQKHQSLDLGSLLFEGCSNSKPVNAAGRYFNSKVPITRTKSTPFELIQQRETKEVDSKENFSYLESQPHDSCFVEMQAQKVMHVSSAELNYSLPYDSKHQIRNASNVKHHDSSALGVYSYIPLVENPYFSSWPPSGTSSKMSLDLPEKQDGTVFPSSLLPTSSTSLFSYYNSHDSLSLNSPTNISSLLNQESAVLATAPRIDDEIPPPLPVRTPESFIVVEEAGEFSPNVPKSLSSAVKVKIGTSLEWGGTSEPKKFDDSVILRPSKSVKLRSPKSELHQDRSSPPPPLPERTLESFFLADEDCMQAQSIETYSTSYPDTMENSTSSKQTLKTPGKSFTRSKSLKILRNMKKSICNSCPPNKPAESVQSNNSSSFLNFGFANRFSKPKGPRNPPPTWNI

Albumin = Albumin (Bos taurus, UniProt P02769); assay: Counterscreen for inhibitors of T-cell receptor (TCR)-CD3 interaction: Fluorescence-based biochemical high throughput dose response assay to identify inhibitors of T-cell receptor (TCR)-CD3 interaction using a TAMRA-labeled BSA probe.; format: functional
Sequence of Albumin (P02769 whole entry): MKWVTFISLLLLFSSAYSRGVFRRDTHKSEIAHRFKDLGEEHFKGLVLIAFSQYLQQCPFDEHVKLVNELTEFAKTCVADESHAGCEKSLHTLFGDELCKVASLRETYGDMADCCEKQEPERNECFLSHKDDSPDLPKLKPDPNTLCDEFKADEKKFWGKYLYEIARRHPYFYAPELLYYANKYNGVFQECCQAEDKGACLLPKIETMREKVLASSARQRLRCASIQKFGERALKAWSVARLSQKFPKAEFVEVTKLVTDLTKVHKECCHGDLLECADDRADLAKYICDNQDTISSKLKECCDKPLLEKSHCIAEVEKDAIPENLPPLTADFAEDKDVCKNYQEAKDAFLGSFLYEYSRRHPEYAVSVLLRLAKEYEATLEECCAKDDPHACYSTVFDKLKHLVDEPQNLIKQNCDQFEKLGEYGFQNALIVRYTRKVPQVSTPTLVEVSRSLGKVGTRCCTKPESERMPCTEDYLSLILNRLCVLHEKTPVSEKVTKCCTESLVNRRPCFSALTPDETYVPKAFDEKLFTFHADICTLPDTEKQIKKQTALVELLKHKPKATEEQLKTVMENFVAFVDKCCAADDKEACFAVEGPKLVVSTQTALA

[21] = target: T8, Apoptotic protease-activating factor 1 (Homo sapiens, UniProt O14727); assay: SAR analysis of small molecule Activators of Apaf-1 in a Fluorescent assay.; format: functional; details: read-out: EC50_Mean;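 further: caspase-3 cleavage of fluorogenic Rh110 DEVD substrate downstream of apoptosome activation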
T8 sequence (O14727 whole entry): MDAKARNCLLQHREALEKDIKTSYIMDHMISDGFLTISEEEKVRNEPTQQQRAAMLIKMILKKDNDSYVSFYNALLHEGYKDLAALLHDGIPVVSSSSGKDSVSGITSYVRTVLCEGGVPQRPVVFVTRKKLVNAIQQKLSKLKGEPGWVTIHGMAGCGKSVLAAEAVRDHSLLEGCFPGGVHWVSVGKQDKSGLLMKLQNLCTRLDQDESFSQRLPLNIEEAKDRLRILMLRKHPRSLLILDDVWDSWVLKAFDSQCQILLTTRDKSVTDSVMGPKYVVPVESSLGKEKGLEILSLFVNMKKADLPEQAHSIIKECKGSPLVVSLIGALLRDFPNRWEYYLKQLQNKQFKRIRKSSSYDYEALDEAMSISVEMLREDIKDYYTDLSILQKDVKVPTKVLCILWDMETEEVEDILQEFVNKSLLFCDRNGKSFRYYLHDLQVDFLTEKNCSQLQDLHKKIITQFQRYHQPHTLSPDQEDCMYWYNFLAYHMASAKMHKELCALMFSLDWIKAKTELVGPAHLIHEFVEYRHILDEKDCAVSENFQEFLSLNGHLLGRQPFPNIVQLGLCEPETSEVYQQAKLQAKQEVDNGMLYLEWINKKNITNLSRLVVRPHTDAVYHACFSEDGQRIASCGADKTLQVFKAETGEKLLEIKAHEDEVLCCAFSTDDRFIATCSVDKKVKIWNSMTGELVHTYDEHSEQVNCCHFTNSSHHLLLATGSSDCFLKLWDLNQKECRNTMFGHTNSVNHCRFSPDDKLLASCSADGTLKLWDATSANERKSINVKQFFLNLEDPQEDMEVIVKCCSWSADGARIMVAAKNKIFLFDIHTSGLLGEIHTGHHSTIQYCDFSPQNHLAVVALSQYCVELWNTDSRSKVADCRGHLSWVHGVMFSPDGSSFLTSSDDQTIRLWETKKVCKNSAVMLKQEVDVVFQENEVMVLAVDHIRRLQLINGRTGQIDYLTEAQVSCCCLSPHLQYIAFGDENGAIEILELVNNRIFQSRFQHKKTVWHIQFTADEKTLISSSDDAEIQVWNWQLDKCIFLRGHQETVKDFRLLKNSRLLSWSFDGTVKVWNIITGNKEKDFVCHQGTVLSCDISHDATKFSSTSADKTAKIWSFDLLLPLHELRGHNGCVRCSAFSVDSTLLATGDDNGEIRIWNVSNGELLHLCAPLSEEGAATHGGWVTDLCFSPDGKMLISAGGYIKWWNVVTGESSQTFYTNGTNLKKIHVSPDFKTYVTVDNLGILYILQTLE

T1 sequence (Q9P0U3 whole entry, the tested form may be a part): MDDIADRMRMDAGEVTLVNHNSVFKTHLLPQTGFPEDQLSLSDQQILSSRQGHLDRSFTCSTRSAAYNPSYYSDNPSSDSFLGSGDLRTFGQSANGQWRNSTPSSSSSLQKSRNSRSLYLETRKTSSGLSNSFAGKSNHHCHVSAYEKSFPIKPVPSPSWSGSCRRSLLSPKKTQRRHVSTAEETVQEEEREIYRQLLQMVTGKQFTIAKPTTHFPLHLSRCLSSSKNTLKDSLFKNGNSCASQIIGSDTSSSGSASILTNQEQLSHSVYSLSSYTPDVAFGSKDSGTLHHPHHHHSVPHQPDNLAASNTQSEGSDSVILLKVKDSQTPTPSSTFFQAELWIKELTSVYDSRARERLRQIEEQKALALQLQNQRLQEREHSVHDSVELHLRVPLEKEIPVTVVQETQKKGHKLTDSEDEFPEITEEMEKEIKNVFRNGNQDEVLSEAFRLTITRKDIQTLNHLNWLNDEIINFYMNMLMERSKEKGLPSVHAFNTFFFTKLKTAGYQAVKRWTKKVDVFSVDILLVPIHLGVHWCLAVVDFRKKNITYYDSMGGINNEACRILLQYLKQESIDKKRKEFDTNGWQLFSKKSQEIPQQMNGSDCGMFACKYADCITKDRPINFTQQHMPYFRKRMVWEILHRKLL

With Cc1ccc(-n2cc(-c3ccc([N+](=O)[O-])cc3)[nH]c2=S)c(C)c1 the IC50 [1] was 54.1 µM (inactive) and the IC50 [2] was 17.2 µM (active).
For N#CC(c1ccccc1)c1c(Cl)cnn(Cc2cccc3ccccc23)c1=O (stereo not given), the IC50 [3] was 7.61 µM (active) and the IC50 [4] was 0.13 µM (active).
In the case of CC(C)(C)OC(=O)N[C@@H](Cc1c[nH]c2ccccc12)c1nnc(SCC(N)=O)o1, the AC50 [5] is reported as 19.5 µM (active).
For Cc1ccnc(NS(=O)(=O)c2ccc(NC(=O)Cc3cccs3)cc2)n1, the IC50 (Estrogen receptor beta [6]) was > 109 µM (not active), the IC50 (Estrogen receptor) was 12.2 µM (active) and the IC50 [7] was 9.16 µM (active). For the same compound, the IC50 (Estrogen receptor beta [8]) was 3.09 µM (active) and the IC50 [9] was 4.2 µM (active).
For Cc1ccc2nc3c(O)n(CC(=O)Nc4ccccc4N4CCN(C)CC4)ncc-3c2c1, the IC50 [10] was 74 µM (inactive).
For Cc1ccc2nc(-c3ccc(NC(=O)C(C)Sc4nncs4)cc3)sc2c1 (stereo not given), the AC50 [11] was > 52 µM (inactive), the AC50 [12] was 5.56 µM (active) and the IC50 (Melanocortin receptor 4) was > 64.6 µM (inactive). The IC50 [13] was > 64.6 µM (inactive) and the AC50 [14] was 5.51 µM (active).
With CCc1cc(OCCCCNCc2ccccc2)ccc1Cl the AC50 [5] was 10.6 µM (active), the CC50 [15] was > 40 µM (active) and the CC50 [16] was > 40 µM (active). The IC50 (cells) was 20.1 µM (active).
In the case of COc1ccc(Oc2c(Cl)cnn(CC(=O)O)c2=O)cc1, the IC50 [3] is reported as > 20 µM (inactive) and the IC50 [4] is reported as > 20 µM (inactive).
With N#Cc1ccc(NC(=S)NCCN2CCOCC2)cc1 the AC50 [17] was 107 µM (active).
For O=C1C(=Cc2cn(-c3ccccc3)nc2-c2ccc(OCc3ccccc3)cc2)SC(=S)N1CCS(=O)(=O)O, the IC50 [18] was 7.03 µM (active), the IC50 [19] was 7.75 µM (active) and the IC50 [20] was 16.1 µM (active). For the same compound, the IC50 (Albumin) was > 94.2 µM (inactive).
For O=C(COC(=O)CNC(=O)c1ccc(Cl)cc1Cl)NCc1ccco1, the IC50 (Melanocortin receptor 4) was > 64.6 µM (inactive) and the IC50 [13] was > 64.6 µM (inactive).
In the case of CCOc1ccccc1NC(=O)CCS(=O)(=O)c1cc2c(cc1Br)CCN2C(=O)CC, the EC50 [21] is reported as > 100 µM (inactive).
